Experimental data as given in PubChem BioAssay (NCI).
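1) Cells in 96-well plates. 2) Compound, 48 h, 5 concentrations. 3) Linear interpolation between surrounding doses. 4) Unreached endpoint = highest concentration. The concentration for 50% growth inhibition is given as GI50. TGI is the concentration that stops growth completely.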

Key:
Test in all cases: NCI-60 cell line screen, 48 h
SK-MEL-28 melanoma = system: SK-MEL-28 melanoma
HCC-2998 colon = system: HCC-2998 colon
OVCAR-8 ovarian = system: OVCAR-8 ovarian
BT-549 breast = system: BT-549 breast
OVCAR-5 ovarian = system: OVCAR-5 ovarian
HOP-62 NSCLC = system: HOP-62 NSCLC
SF-295 CNS = system: SF-295 CNS
SF-268 CNS = system: SF-268 CNS
EKVX NSCLC = system: EKVX NSCLC
SNB-19 CNS = system: SNB-19 CNS

| SMILES | GI50 (SK-MEL-28 melanoma) [µM] | TGI (SK-MEL-28 melanoma) [µM] | GI50 (HCC-2998 colon) [µM] | TGI (HCC-2998 colon) [µM] | GI50 (OVCAR-8 ovarian) [µM] | TGI (OVCAR-8 ovarian) [µM] | GI50 (BT-549 breast) [µM] | TGI (BT-549 breast) [µM] | GI50 (OVCAR-5 ovarian) [µM] | TGI (OVCAR-5 ovarian) [µM] | GI50 (HOP-62 NSCLC) [µM] | TGI (HOP-62 NSCLC) [µM] | GI50 (SF-295 CNS) [µM] | TGI (SF-295 CNS) [µM] | GI50 (SF-268 CNS) [µM] | TGI (SF-268 CNS) [µM] | GI50 (EKVX NSCLC) [µM] | TGI (EKVX NSCLC) [µM] | GI50 (SNB-19 CNS) [µM] | TGI (SNB-19 CNS) [µM] |
| --- | --- | --- | --- | --- | --- | --- | --- | --- | --- | --- | --- | --- | --- | --- | --- | --- | --- | --- | --- | --- |
| N#C/C(=N\Nc1ccc(Cl)cc1)C(=O)Nc1cc(-c2ccccc2)nn1-c1ccccc1 | 3.62 | > 100 | 3.74 | > 100 | 2.96 | > 100 | 2.52 | 7.18 | 3 | > 100 | 3.31 | > 100 | 2.86 | > 100 | 2.65 | > 100 | 2.64 | > 100 | 3.17 | > 100 |
| N=C(N)c1ccc(OCCOCCOc2ccc(C(=N)N)cc2)cc1 | 77 | > 100 | > 100 | > 100 | 31.4 | > 100 | 53.5 | > 100 | > 100 | > 100 | > 100 | > 100 | 44.7 | > 100 | 52 | > 100 | > 100 | > 100 | 80.6 | > 100 |
| CC(C)Nc1ccc(Nc2ccccc2)cc1 | 28.1 | 95.1 | 25.3 | > 100 | 11.6 | 26.5 | 11.3 | 33.9 | 24.6 | 57.1 | 23.6 | 66.9 |  |  | 17 | 50.4 | 12.8 | 44.7 | 25.5 | > 100 |
| CCCCOc1ccc(NC(=O)n2nc(N)c3ccccc32)cc1 | 28.3 | > 90.5 | 17 | 37 | 30.3 | > 85.9 | 17.6 | 37 | 21.9 | 68.4 | 24.4 | 60.6 | 23.5 | 79.3 | 20.3 | > 100 | 17.4 | 85.1 | 52 | > 100 |
| Oc1ccc(CN2CCC(N3CCOCC3)CC2)c2cccnc12 | 37.6 | > 100 | 51.7 | > 100 | 34.3 | > 100 | 31.9 | > 100 | 86.9 | > 100 | 42.7 | > 100 | 39.8 | > 100 | 16.3 | > 100 | 36.6 | > 100 | 43.9 | > 100 |
| CCOC(=O)/C(=N\OC)C(O)C(F)(F)F (stereo not drawn) |  | > 100 |  | > 100 |  | > 100 |  | > 100 |  | > 100 |  | > 100 |  | > 100 |  | > 100 |  | > 100 |  | > 100 |
| O=c1ccc(N=Nc2ccc([N+](=O)[O-])cc2)ccc1O | 8.65 | > 100 | 6.08 | > 100 | 3.97 | > 100 | 8.74 | > 100 | 30.1 | > 100 | 18.1 | > 100 | 4.57 | > 100 | 4.18 | > 100 | 4.29 | > 100 | 4.14 | > 100 |
| Cc1cc(Cl)cc2c(N=Nc3ccccc3[N+](=O)[O-])c(O)[nH]c12 |  | > 100 |  | > 100 |  |  |  | > 100 |  | > 100 |  | > 100 |  | > 100 |  | > 100 |  | > 100 |  | > 100 |
| Cn1cc(C2=C(c3cccc(N)c3)C(=O)NC2=O)c2ccccc21 | > 25 | > 25 | > 25 | > 25 | 17.4 | > 25 | > 19.3 | > 25 | > 25 | > 25 | 9.5 | > 25 | 3.93 | > 25 | 24.6 | > 25 |  |  | > 25 | > 25 |
| O=[N+]([O-])c1ccccc1N=Nc1c(O)[nH]c2ccc(Br)cc12 |  | > 61.9 |  | 34.1 |  | 44 |  | > 47.3 |  | 33.3 |  | 28.3 |  | 34.3 |  | 51.9 |  | > 59 |  | 45.2 |
| CC/C(=C(/c1ccc(OCCN(C)C)cc1)c1ccc(OC(=O)CCC(=O)c2c(C)[nH]c(/C=C3\N=C(c4ccc[nH]4)C=C3OC)c2C)cc1)c1ccccc1 | 2.89 | 12.4 | 3.72 | 13.4 | 2.73 | 10.3 | 3.5 | 20.4 | 5.75 | 21.6 | 1.49 | 4.94 | 2.61 | 9.06 | 2.62 | 17.8 |  |  | 5.49 | 21.8 |
| Nc1cc(C(=O)O)[nH]c(=O)n1 |  | > 100 |  | > 100 |  | > 100 |  | > 100 |  | > 100 |  | > 100 |  | > 100 |  | > 100 |  | > 100 |  | > 100 |
| CC(C)c1c(C(=O)Nc2ccccc2)c(-c2ccccc2)c(-c2ccc(F)cc2)n1CC[C@@H]1CC=CC(=O)O1 | 1.69 | 3.14 | 1.92 | 3.5 | 2.23 | 5.23 | 1.6 | 3.46 | 2.05 | 5.02 | 1.85 | 4.14 | 3.28 | 13.6 | 1.81 | 3.65 | 1.86 | 3.68 | 1.7 | 3.13 |
| Cc1ccc2c(c1)c1nc3cc(C)c(C)cc3nc1n2CCN(C)C | 2.55 | 5.46 | 1.79 | 3.98 | 1.73 | 8.29 | 2.46 | 9.05 | 2.4 | 7.65 | 1.78 | 7.26 | 2.37 | 6.62 | 2.51 | 7.65 | 2.95 | 11.4 | 2.5 | 9.88 |
